Patent publication US10071103B2, “Treatments for resistant acne” (VYOME BIOSCIENCES PVT. LTD., priority 2014, dated 2018)
≈ marks a conversion by molar mass, not a printed value.

Experiments:
[1] = test system: P. acnes MTCC 1951; test: MIC by micro broth dilution (Alamar blue), clindamycin-susceptible P. acnes; format: cell-based, Propionibacterium acnes; settings: Cutibacterium acnes, MTCC1951; Table 7; against P. acnes; read-out: MIC
Method: The plates were incubated at 37° C. for 48 h under anaerobic condition for P. acnes and 37° C. for 24 h for S. aureus The plates were read under Bio-Rad plate reader at 595 nm for optical density to generate the dose-response curves. The MIC of the test compound was recorded by addition of Alamar blue dye.
P. acnes (MTCC 3297, MTCC 1951& CCARM 9010) are cultured in Brain Heart Infusion (BHI) Broth at 37° C. for 48-72 h under anaerobic condition. The test compounds/formulations are initially diluted with suitable solvent and further diluted with BHI broth to get the required concentrations. Samples (100 μl) of different concentrations (prepared by serial dilution) are added to 96-well plate. To the wells, 100 μl of P. acnes BHI broth culture is added [culture turbidity adjusted against 0.5 McFarland standard (approx 1.5×10^8), and further diluted 100-fold with sterile BHI broth]. In addition Growth Control and Sterility Control are created using 100 μl each of P. acnes BHI broth culture and plain BHI broth, respectively.
Plates are incubated at 37° C. for 48-72 hrs under anaerobic condition. The plate is read under Bio-Rad plate reader @ 595 nm for optical density to generate the dose-response curves. The MIC of the test compound is recorded by addition of Alamar blue dye.
BHI broth and BHI agar media were prepared as per the manufacturer's instruction and autoclaved at 121° C. for 15 minutes. […] For MIC determination testing, gels are dissolved in the solvent and further diluted with BHI broth. Then, 96 wells plate are filled with 100 μl of BHI broth containing drug with different concentration to get the final concentrations of 0.06, 0.13, 0.25, 0.5, 1 and 2 μg/ml in different lanes (lane 1 to lane 6). Remaining lanes of the 96 well plate are used as growth control and sterility control. Finally, P. acnes culture suspension (approx 1.5×10^6) is added in all the wells except sterility control wells and plate is incubated at 37° C. for 48-72 h under anaerobic condition. At the end of 72 h, Alamar blue solution (20 μl) is added into the wells and incubated at 37° C. for 2 h. Plate is visualized for bacterial inhibitions and MIC values of the tested samples are determined. […]

[2] = test system: P. acnes MTCC 1951; format: cell-based, Propionibacterium acnes
Method: 3 to 4 Petri plates containing 48 h P. acnes culture was suspended in sterile Phosphate buffer saline, PBS (pH 7.2) and turbidity was adjusted to optical density of 1 at 600 nm (10^9 cells/ml). 50 ml of this culture suspension was centrifuged at 4000 rpm for 40 min. The supernatant was discarded and pellet resuspended in 250 μl of sterile PBS. 50 μl of these cell suspensions (10^10 cells) was spread over the plates containing various concentrations of antibiotics (around MIC range). Plates were incubated at 37° C. for 48 h and the lowest concentration of the drug that allowed no growth was taken as its MPC.

[3] = test system: P. acnes clinical isolates; test: MIC of P. acnes isolated from acne patients (clinical isolates);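 note: anaerobic 96-well plate assay at 37 °C over 72 h, with Alamar blue dye as read-out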;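 for MIC: MIC in µg/mL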
Method: P. acnes were cultured in Brain Heart Infusion Agar (BHIA) at 37° C. for 48 hours under anaerobic condition. […] For bacterial inoculum, P. acnes culture turbidity was adjusted to 0.5 McFarland standard (approximately 1.5×10^8) and further diluted (100 times with sterile BHI broth). Diluted P. acnes suspension (100 μl) was added to each well except sterility control wells (column 12 of 96 well plate). Inoculated plates were incubated at 37° C. for 72 hours under anaerobic condition. After incubation, MIC was determined by adding Alamar blue dye.

[4] = test system: IL-6; test: P. acnes-induced IL-6 release in THP-1 cells (ELISA); format: cell-based; settings: Example 61; besifloxacin 10, 30 μg/ml; adapalene 0.04, 0.4 μg/ml
Method: Method: Preparation of Stimulant for Inflammation: P. acnes culture suspension was prepared in PBS and the cell number in the suspension was adjusted to approximately 5×10^8 CFU/ml by measuring the cell density using a Densimat. The bacterial suspension was then heat killed at 80° C. for 30 min and stored at −80° C. until further use.
Cells were seeded in a 96-well format (2×10^5 THP-1 cells per well) in media containing 10% FBS. The cells were stimulated to induce inflammatory cytokines using 3 McFarland equivalent heat-killed P. acnes. Cells in control wells were treated with PBS. One hour after induction with P. acnes, test agents were added to the induced cells at appropriate concentrations to be tested (compound 91 at 25 μg/ml). The plates were incubated at 37° C. for 24 hours. After 24 h, the plates were centrifuged to pellet the cells and the supernatants were collected. The cell culture supernatants thus obtained were analyzed for levels of cytokines (IL-1α, IL-1β, IL-6 and IL-8) by ELISA using R&D Systems kits for individual cytokines following the manufacturer's instructions.
Preparation of stimulant for inflammation: P. acnes culture suspension was prepared in PBS and the cell number in the suspension was adjusted to approximately 5×10^8 CFU/ml by measuring the cell density using a Densimat. The bacterial suspension was then heat killed at 80° C. for 30 min and stored at −80° C. until further use.
Cells were seeded in a 96-well format (2×10^5 THP-1 cells per well) in media containing 10% FBS. The cells were stimulated to induce inflammatory cytokines using 3 McFarland equivalent heat-killed P. acnes. Cells in control wells were treated with PBS. One hour after induction with P. acnes, test agents were added to the induced cells at appropriate concentrations (Besifloxacin at 10 and 30 μg/ml; Adapalene at 0.04 and 0.4 μg/ml). The plates were incubated at 37° C. for 24 hours. After 24 h, the plates were centrifuged to pellet the cells and the supernatants were collected. The cell culture supernatants thus obtained were analyzed for cytokine levels (IL-6 and IL-8) by ELISA using R&D Systems kits for individual cytokines following the manufacturer's instructions.

N[C@@H]1CCCCN(c2c(F)cc3c(=O)c(C(=O)O)cn(C4CC4)c3c2Cl)C1 [Besifloxacin]
MIC [1]: 0.5 µg/mL (≈ 1.27 µM) | MPC ([2]; P. acnes, 10^10 cells inoculum): 2 µg/mL | MPC/MIC ([2]; ratio against P. acnes): 4 | Susceptibility of P. acnes isolated from volunteers V3 and V21 (in words) [3]: susceptible | Susceptibility of clindamycin-nonresponder clinical isolates (in words) [3]: susceptible | Susceptibility of clinical isolates susceptible to clindamycin and erythromycin (in words) [3]: susceptible | MIC ([3]; Cutibacterium acnes): 0.25 µg/mL | MIC ([3]; Cutibacterium acnes, P. acnes strain V5-2, clinical isolate susceptible to clindamycin and erythromycin): 0.5 µg/mL | MIC ([3]; Cutibacterium acnes, P. acnes strain V5-5, clinical isolate susceptible to clindamycin and erythromycin): 0.5 µg/mL | MIC ([3]; Cutibacterium acnes, P. acnes strain V5-7, clinical isolate susceptible to clindamycin and erythromycin): 0.5 µg/mL | MIC ([3]; Cutibacterium acnes, P. acnes strain V6-5, clinical isolate susceptible to clindamycin and erythromycin): 0.5 µg/mL | MIC ([3]; Cutibacterium acnes, P. acnes strain V6-6, clinical isolate susceptible to clindamycin and erythromycin): 0.5 µg/mL | MIC ([3]; Cutibacterium acnes, P. acnes strain V6-7, clinical isolate susceptible to clindamycin and erythromycin): 0.5 µg/mL | MIC ([3]; Cutibacterium acnes, P. acnes strain V7-3, clinical isolate susceptible to clindamycin and erythromycin): 0.5 µg/mL | MIC ([3]; Cutibacterium acnes, P. acnes strain V7-4, clinical isolate susceptible to clindamycin and erythromycin): 0.5 µg/mL | MIC ([3]; Cutibacterium acnes, P. acnes strain V7-14, clinical isolate susceptible to clindamycin and erythromycin): 0.5 µg/mL | MIC ([3]; Cutibacterium acnes, P. acnes strain V9-6E, clinical isolate susceptible to clindamycin and erythromycin): 0.5 µg/mL | MIC ([3]; Cutibacterium acnes, P. acnes strain V13-3E, clinical isolate susceptible to clindamycin and erythromycin): 0.5 µg/mL | MIC ([3]; Cutibacterium acnes, P. acnes strain V14-2E, clinical isolate susceptible to clindamycin and erythromycin): 0.5 µg/mL | MIC ([3]; Cutibacterium acnes, P. acnes strain V17-3E, clinical isolate susceptible to clindamycin and erythromycin): 0.5 µg/mL | MIC ([3]; P. acnes strain V2-9, clinical isolate susceptible to clindamycin and erythromycin): 0.25 µg/mL | MIC ([3]; P. acnes strain V3-9, clinical isolate susceptible to clindamycin and erythromycin): 0.25 µg/mL | MIC ([3]; P. acnes strain V3-10, clinical isolate susceptible to clindamycin and erythromycin): 0.25 µg/mL | MIC ([3]; P. acnes strain V4-6, clinical isolate susceptible to clindamycin and erythromycin): 0.25 µg/mL | MIC ([3]; P. acnes strain V4-8, clinical isolate susceptible to clindamycin and erythromycin): 0.25 µg/mL | MIC ([3]; P. acnes strain V4-13, clinical isolate susceptible to clindamycin and erythromycin): 0.25 µg/mL | MIC ([3]; P. acnes strain V12-2E, clinical isolate susceptible to clindamycin and erythromycin): 0.25 µg/mL | MIC ([3]; P. acnes strain V15B-1E, clinical isolate susceptible to clindamycin and erythromycin): 0.25 µg/mL | MIC ([3]; P. acnes strain V18-4E, clinical isolate susceptible to clindamycin and erythromycin): 0.25 µg/mL | MIC ([3]; P. acnes strain V19-2E, clinical isolate susceptible to clindamycin and erythromycin): 0.25 µg/mL | MIC ([3]; P. acnes strain V20-5E, clinical isolate susceptible to clindamycin and erythromycin): 0.25 µg/mL | Effect on P. acnes-induced IL-6 levels (in words) [4]: concentration-dependent inhibitory effect
